Data set [1] in a line: Drug accumulation in human NCI-H292 cells at 3 to 10 uM incubated for 3 hrs by LC-MS analysis relative to azithromycin. The class given is ADME, cell-based. As to conditions: nci-h292, 3 h.
A short description of data set [2]: Chromatographic hydrophobicity, logD of the compound at pH 7.4 by fast-gradient RP-HPLC method. Conditions: buffer. It counts as physicochemical.

Turning to `CC[C@H]1OC(=O)[C@H](C)[C@@H](OCCCNC(=O)COC)[C@H](C)[C@@H](O[C@@H]2O[C@H](C)C[C@H](N(C)C)[C@H]2O)[C@](C)(O)C[C@@H](C)CN(C)[C@H](C)[C@@H](O)[C@]1(C)O`, the Drug uptake in data set [1] came to 14%. Moreover, the chromatographic logD in data set [2] turned out to be 1.4.

For `CCC(=O)NCCCN1C[C@H](C)C[C@@](C)(O)[C@H](O[C@@H]2O[C@H](C)C[C@H](N(C)C)[C@H]2O)[C@@H](C)[C@H](O[C@H]2C[C@@](C)(OC)[C@@H](O)[C@H](C)O2)[C@@H](C)C(=O)O[C@H](CC)[C@@](C)(O)[C@H](O)[C@H]1C`, the Drug uptake in data set [1] was found to be 0%. For the same molecule, in data set [2], the chromatographic logD was determined as 1.86.

In data set [1], `CC[C@H]1OC(=O)[C@H](C)[C@@H](O[C@H]2C[C@@](C)(OC)[C@@H](O)[C@H](C)O2)[C@H](C)[C@@H](O[C@@H]2O[C@H](C)C[C@H](N(C)C)[C@H]2OCCCNC(=O)C2CCC2)[C@](C)(O)C[C@@H](C)CN(C)[C@H](C)[C@@H](O)[C@]1(C)O` came in with a Drug uptake of 124%. Further, the chromatographic logD in data set [2] stood at 3.16.

In data set [1], `CCCCCCCC(=O)NCCCN1C[C@H](C)C[C@@](C)(O)[C@H](O)[C@@H](C)[C@H](O)[C@@H](C)C(=O)O[C@H](CC)[C@@](C)(O)[C@H](O)[C@H]1C` yielded a Drug uptake of 63%. For the same molecule, the chromatographic logD in data set [2] stood at 3.49.

Turning to `CC[C@H]1OC(=O)[C@H](C)[C@@H](O[C@H]2C[C@@](C)(OC)[C@@H](O)[C@H](C)O2)[C@H](C)[C@@H](O[C@@H]2O[C@H](C)C[C@H](N(C)CCCNC(C)=O)[C@H]2O)[C@](C)(OC)C[C@@H](C)C(=O)[C@H](C)[C@@H](O)[C@]1(C)O`, the Drug uptake in data set [1] is 27%. Also, the chromatographic logD in data set [2] amounted to 3.08.

Regarding `CCCCC(=O)NCCCO[C@@H]1[C@@H](C)N(C)C[C@H](C)C[C@@](C)(O)[C@H](O[C@@H]2O[C@H](C)C[C@H](N(C)C)[C@H]2O)[C@@H](C)[C@H](O[C@H]2C[C@@](C)(OC)[C@@H](O)[C@H](C)O2)[C@@H](C)C(=O)O[C@H](CC)[C@@]1(C)O`, the Drug uptake in data set [1] was 756%. The molecule also returned a chromatographic logD in data set [2] of 3.74.

In data set [1], `CCCCCCCC(=O)NCCCN1C[C@H](C)C[C@@](C)(O)[C@H](O[C@@H]2O[C@H](C)C[C@H](N(C)C)[C@H]2O)[C@@H](C)[C@H](O)[C@@H](C)C(=O)O[C@H](CC)[C@@](C)(O)[C@H](O)[C@H]1C` came in with a Drug uptake of 80%. This molecule showed a chromatographic logD in data set [2] of 3.08.

Regarding `CC[C@H]1OC(=O)[C@H](C)[C@@H](O[C@H]2C[C@@](C)(OC)[C@@H](O)[C@H](C)O2)[C@H](C)[C@@H](O[C@@H]2O[C@H](C)C[C@H](N(C)C)[C@H]2O)[C@](C)(O)C[C@@H](C)CN(CCCNC(=O)COC)[C@H](C)[C@@H](O)[C@]1(C)O`, in data set [1], the Drug uptake is reported as 2%.

Take `CCCCCCCC(=O)NCCCO[C@@H]1[C@@H](C)N(C)C[C@H](C)C[C@@](C)(O)[C@H](O[C@@H]2O[C@H](C)C[C@H](N(C)C)[C@H]2O)[C@@H](C)[C@H](O[C@H]2C[C@@](C)(OC)[C@@H](O)[C@H](C)O2)[C@@H](C)C(=O)O[C@H](CC)[C@@]1(C)O`: in data set [1], the Drug uptake is 756%. The chromatographic logD in data set [2] came out at 5.18.

For the molecule `CC[C@H]1OC(=O)[C@H](C)[C@@H](O[C@H]2C[C@@](C)(OC)[C@@H](OCCCNC(C)=O)[C@H](C)O2)[C@H](C)[C@@H](O[C@@H]2O[C@H](C)C[C@H](N(C)C)[C@H]2O)[C@](C)(O)C[C@@H](C)CN(C)[C@H](C)[C@@H](O)[C@]1(C)O`, in data set [1], the Drug uptake is 6%. Moreover, the chromatographic logD in data set [2] was found to be 2.06.

Molecule `CCCCCCCC(=O)NCCCO[C@@H]1[C@@H](C)C(=O)[C@H](C)C[C@@](C)(OC)[C@H](O[C@@H]2O[C@H](C)C[C@H](N(C)C)[C@H]2O)[C@@H](C)[C@H](O[C@H]2C[C@@](C)(OC)[C@@H](O)[C@H](C)O2)[C@@H](C)C(=O)O[C@H](CC)[C@@]1(C)O` yielded a Drug uptake in data set [1] of 575%. This molecule also came in with a chromatographic logD in data set [2] of 5.07.

`CC[C@H]1OC(=O)[C@H](C)[C@@H](O[C@H]2C[C@@](C)(OC)[C@@H](O)[C@H](C)O2)[C@H](C)[C@@H](O[C@@H]2O[C@H](C)C[C@H](N(C)C)[C@H]2O)[C@](C)(OC)C[C@@H](C)/C(=N\O)[C@H](C)[C@@H](O)[C@]1(C)OCCCNC(C)=O`: the Drug uptake in data set [1] turned out to be 9%. In addition, in data set [2], the chromatographic logD amounted to 2.94.

With `CCC(=O)NCCCO[C@H]1[C@H](C)[C@@H](O[C@@H]2O[C@H](C)C[C@H](N(C)C)[C@H]2O)[C@](C)(O)C[C@@H](C)CN(C)[C@H](C)[C@@H](O)[C@](C)(O)[C@@H](CC)OC(=O)[C@@H]1C`, in data set [1], the Drug uptake is 22%. Besides, the chromatographic logD in data set [2] came out at 1.6.

For `CCCCCCCC(=O)NCCCN(C)[C@H]1C[C@@H](C)O[C@@H](O[C@@H]2[C@@H](C)[C@H](O[C@H]3C[C@@](C)(OC)[C@@H](O)[C@H](C)O3)[C@@H](C)C(=O)O[C@H](CC)[C@@](C)(O)[C@H](O)[C@@H](C)C(=O)[C@H](C)C[C@@]2(C)OC)[C@@H]1O`, the Drug uptake in data set [1] came out at 363%. The molecule further had a chromatographic logD in data set [2] of 6.44.

In data set [1], `CC[C@H]1OC(=O)[C@H](C)[C@@H](O[C@H]2C[C@@](C)(OC)[C@@H](O)[C@H](C)O2)[C@H](C)[C@@H](O[C@@H]2O[C@H](C)C[C@H](N(C)C)[C@H]2OCCCNC(=O)c2c(C)nn(C)c2Cl)[C@](C)(O)C[C@@H](C)CN(C)[C@H](C)[C@@H](O)[C@]1(C)O` yielded a Drug uptake of 95%. The molecule further yielded a chromatographic logD in data set [2] of 3.08.

In turn, `CC[C@H]1OC(=O)[C@H](C)[C@@H](OCCCNC(=O)C2CCC2)[C@H](C)[C@@H](O[C@@H]2O[C@H](C)C[C@H](N(C)C)[C@H]2O)[C@](C)(O)C[C@@H](C)CN(C)[C@H](C)[C@@H](O)[C@]1(C)O` had a Drug uptake in data set [1] of 21%. For the same molecule, the chromatographic logD in data set [2] was 1.78.

In data set [1], `CC[C@H]1OC(=O)[C@H](C)[C@@H](O[C@H]2C[C@@](C)(OC)[C@@H](O)[C@H](C)O2)[C@H](C)[C@@H](O[C@@H]2O[C@H](C)C[C@H](N(C)C)[C@H]2O)[C@](C)(OC)C[C@@H](C)C(=O)N[C@H](C)[C@@H](O)[C@]1(C)O` displayed a Drug uptake of 10%. Also, the chromatographic logD in data set [2] was found to be 2.41.

Take `CC[C@H]1OC(=O)[C@H](C)[C@@H](O[C@H]2C[C@@](C)(OC)[C@@H](OCCCNC(=O)c3c(C)nn(C)c3Cl)[C@H](C)O2)[C@H](C)[C@@H](O[C@@H]2O[C@H](C)C[C@H](N(C)C)[C@H]2O)[C@](C)(O)C[C@@H](C)CN(C)[C@H](C)[C@@H](O)[C@]1(C)O`: the Drug uptake in data set [1] stood at 60%. In data set [2], this molecule gave a chromatographic logD of 2.52.

In the case of `CCC(=O)NCCCO[C@H]1[C@H](C)O[C@@H](O[C@H]2[C@H](C)[C@@H](O[C@@H]3O[C@H](C)C[C@H](N(C)C)[C@H]3O)[C@](C)(O)C[C@@H](C)CN(C)[C@H](C)[C@@H](O)[C@](C)(O)[C@@H](CC)OC(=O)[C@@H]2C)C[C@@]1(C)OC`, the Drug uptake in data set [1] is given as 15%. Further, the chromatographic logD in data set [2] was determined as 2.54.

`CC[C@H]1OC(=O)[C@H](C)[C@@H](O[C@H]2C[C@@](C)(OC)[C@@H](O)[C@H](C)O2)[C@H](C)[C@@H](O[C@@H]2O[C@H](C)C[C@H](N(C)C)[C@H]2O)[C@](C)(OC)C[C@@H](C)/C(=N\O)[C@H](C)[C@@H](O)[C@]1(C)O` came in with a Drug uptake in data set [1] of 48%. The same molecule yielded a chromatographic logD in data set [2] of 3.61.

As for `CC[C@H]1OC(=O)[C@H](C)[C@@H](O[C@H]2C[C@@](C)(OC)[C@@H](O)[C@H](C)O2)[C@H](C)[C@@H](O[C@@H]2O[C@H](C)C[C@H](N(C)C)[C@H]2O)[C@](C)(O)C[C@@H](C)CN(C)[C@H](C)[C@@H](OCCCNC(=O)COC)[C@]1(C)O`, in data set [1], the Drug uptake is reported as 26%. This molecule registered a chromatographic logD in data set [2] of 2.58.

As for `CC[C@H]1OC(=O)[C@H](C)[C@@H](O[C@H]2C[C@@](C)(OC)[C@@H](O)[C@H](C)O2)[C@H](C)[C@@H](O[C@@H]2O[C@H](C)C[C@H](N(C)C)[C@H]2O)[C@](C)(O)C[C@@H](C)CN(C)[C@H](C)[C@@H](OCCCNC(=O)C2CCC2)[C@]1(C)O`, the Drug uptake in data set [1] was determined as 138%. The same molecule registered a chromatographic logD in data set [2] of 3.5.

Consider `CC[C@H]1OC(=O)[C@H](C)[C@@H](O[C@H]2C[C@@](C)(OC)[C@@H](O)[C@H](C)O2)[C@H](C)[C@@H](O[C@@H]2O[C@H](C)C[C@H](N(C)C)[C@H]2O)[C@](C)(O)C[C@@H](C)CN(CCCNC(=O)c2c(C)nn(C)c2Cl)[C@H](C)[C@@H](O)[C@]1(C)O`, for which, in data set [1], the Drug uptake was 5%. Moreover, the chromatographic logD in data set [2] was determined as 2.2.

In data set [1], `CCCCCCCC(=O)NCCCN1C[C@H](C)C[C@@](C)(O)[C@H](O[C@@H]2O[C@H](C)C[C@H](N(C)C)[C@H]2O)[C@@H](C)[C@H](O[C@H]2C[C@@](C)(OC)[C@@H](O)[C@H](C)O2)[C@@H](C)C(=O)O[C@H](CC)[C@@](C)(O)[C@H](O)[C@H]1C` gave a Drug uptake of 207%. In addition, the chromatographic logD in data set [2] was found to be 3.74.

For the molecule `CC[C@H]1OC(=O)[C@H](C)[C@@H](O[C@H]2C[C@@](C)(OC)[C@@H](O)[C@H](C)O2)[C@H](C)[C@@H](O[C@@H]2O[C@H](C)C[C@H](N(C)C)[C@H]2O)[C@](C)(OC)C[C@@H](C)C(=O)[C@H](C)[C@@H](O)[C@]1(C)O` [CLARITHROMYCIN], the Drug uptake in data set [1] is given as 35%. This molecule also registered a chromatographic logD in data set [2] of 3.5.

With `CC[C@H]1OC(=O)[C@H](C)[C@@H](OCCCNC(=O)c2c(C)nn(C)c2Cl)[C@H](C)[C@@H](O[C@@H]2O[C@H](C)C[C@H](N(C)C)[C@H]2O)[C@](C)(O)C[C@@H](C)CN(C)[C@H](C)[C@@H](O)[C@]1(C)O`, in data set [1], the Drug uptake is 59%.

In data set [1], `CCCCCCCC(=O)NCCCN(C)[C@H]1C[C@@H](C)O[C@@H](O[C@@H]2[C@@H](C)[C@H](O[C@H]3C[C@@](C)(OC)[C@@H](O)[C@H](C)O3)[C@@H](C)C(=O)O[C@H](CC)[C@@](C)(O)[C@H](O)[C@@H](C)N(C)C[C@H](C)C[C@@]2(C)O)[C@@H]1O` yielded a Drug uptake of 457%. In data set [2], this molecule came in with a chromatographic logD of 3.74.

For the molecule `CC[C@H]1OC(=O)[C@H](C)[C@@H](O[C@H]2C[C@@](C)(OC)[C@@H](O)[C@H](C)O2)[C@H](C)[C@@H](O[C@@H]2O[C@H](C)C[C@H](N(C)C)[C@H]2O)[C@](C)(O)C[C@@H](C)CN(CCCNC(=O)C2CCC2)[C@H](C)[C@@H](O)[C@]1(C)O`, the Drug uptake in data set [1] worked out at 0%. For the same molecule, the chromatographic logD in data set [2] stood at 2.31.

What is called chromatographic logD is lipophilicity estimated from chromatographic retention.

Values taken from ChEMBL document CHEMBL4265872, “Around the macrolide - Impact of 3D structure of macrocycles on lipophilicity and cellular accumulation” (Eur J Med Chem, 2017).
